Structure (SMILES) | melting point
CC1(C)CC(=C(c2ccc(O)cc2)c2ccc(CCC(=O)O)cc2)CC(C)(C)C1 [Example 61, 3-{4-[(4-Hydroxyphenyl)(3,3,5,5-tetramethylcyclohexylidene)methyl]phenyl}propanoic acid] | 243 to 244 °C
CC1(C)CC(=C(c2ccc(O)cc2)c2ccc(CC(=O)O)cc2)CC(C)(C)C1 [Example 51, {4-[(4-Hydroxyphenyl)(3,3,5,5-tetramethylcyclohexylidene)methyl]phenyl}acetic acid] | 220 to 221 °C
O=C(O)/C=C/c1ccc(C(=C2CCCCCC2)c2ccc(O)c(Cl)c2)cc1 [Example 42, (2E)-3-{4-[(3-Chloro-4-hydroxyphenyl)(cycloheptylidene)methyl]phenyl}-2-propenoic acid] | 155 to 156 °C
CC1(C)CC(=C(c2ccc(/C=C/C(=O)O)cc2)c2ccc(O)c(F)c2)CC(C)(C)O1 [Example 46, (2E)-3-{4-[(3-fluoro-4-hydroxyphenyl)(2,2,6,6-tetramethyltetrahydro-4H-pyran-4-ylidene)methyl]phenyl}-2-propenoic acid] | 125 to 128 °C
O=C(O)COc1ccc(C(=C2CCCCCC2)c2ccc(O)cc2)cc1 [Example 68, ({4-[Cycloheptylidene(4-hydroxyphenyl)methyl]phenyl}oxy)acetic acid] | 170 to 171 °C
CC1(C)CC(=C(c2ccc(O)cc2)c2ccc(OCCOCCO)cc2)CC(C)(C)C1 [Example 23, 4-[[4-({2-[(2-Hydroxyethyl)oxy]ethyl}oxy)phenyl](3,3,5,5-tetramethylcyclohexylidene)methyl]phenol] | 122 to 124 °C
CC1(C)CC(=C(c2ccc(O)cc2)c2ccc(/C=C/C(=O)O)cc2)CC(C)(C)C1 [Example 6, (2E)-3-{4-[(4-Hydroxyphenyl)(3,3,5,5-tetramethylcyclohexylidene)methyl]phenyl}-2-propenoic acid] | 219 to 220 °C
CC1(C)CC(=C(c2ccc(/C=C/C(=O)O)cc2)c2ccc(O)c(Cl)c2)CC(C)(C)C1 [Example 43, (2E)-3-{4-[(3-Chloro-4-hydroxyphenyl)(3,3,5,5-tetramethylcyclohexylidene)methyl]phenyl}-2-propenoic acid] | 111 to 114 °C
C#Cc1ccc(C(=C2CC(C)(C)CC(C)(C)C2)c2ccc(O)cc2)cc1 [Example 49, 4-[(4-Ethynylphenyl)(3,3,5,5-tetramethylcyclohexylidene)methyl]phenol] | 138 to 139 °C
CC1(C)CC(=C(c2ccc(O)cc2)c2ccc(C#CCO)cc2)CC(C)(C)C1 [Example 48, 4-[[4-(3-hydroxy-1-propyn-1-yl)phenyl](3,3,5,5-tetramethylcyclohexylidene)methyl]phenol] | 141 to 142 °C
O=C(O)/C=C/c1ccc(C(=C2CCCCCC2)c2ccc(O)c(F)c2)cc1 [Example 45, (2E)-3-{4-[(3-fluoro-4-hydroxyphenyl)(cycloheptylidene)methyl]phenyl}-2-propenoic acid] | 164 to 165 °C
CC1(C)CC(=C(c2ccc(/C=C/C(=O)O)cc2)c2ccc(O)c(Cl)c2)CC(C)(C)O1 [Example 44, (2E)-3-{4-[(3-Chloro-4-hydroxyphenyl)(2,2,6,6-tetramethyltetrahydro-4H-pyran-4-ylidene)methyl]phenyl}-2-propenoic acid] | 118 to 121 °C
CC(=O)Nc1ccc(C(=C2CC(C)(C)CC(C)(C)C2)c2ccc(O)cc2)cc1 [Example 21, N-{4-[(4-hydroxyphenyl)(3,3,5,5-tetramethylcyclohexylidene)methyl]phenyl}acetamide] | 118 to 121 °C
CC1(C)CC(=C(c2ccc(O)cc2)c2ccc(OCCO)cc2)CC(C)(C)C1 [Example 32, 4-[{4-[(2-Hydroxyethyl)oxy]phenyl}(3,3,5,5-tetramethylcyclohexylidene)methyl]phenol] | 154 to 155 °C
CC1(C)CC(=C(c2ccc(/C=C/C(=O)O)cc2)c2ccc(O)c(F)c2)CC(C)(C)C1 [Example 47, (2E)-3-{4-[(3-fluoro-4-hydroxyphenyl)(3,3,5,5-tetramethylcyclohexylidene)methyl]phenyl}-2-propenoic acid] | 193 to 195 °C
N#Cc1ccc(C(=C2CCCCCC2)c2ccc(O)cc2)cc1 [Example 77, 4-[cycloheptylidene(4-hydroxyphenyl)methyl]benzonitrile] | 110 to 111 °C
CC1(C)CC(=C(c2ccc(O)cc2)c2ccc(S(C)(=O)=O)cc2)CC(C)(C)C1 [Example 30, 4-[[4-(Methylsulfonyl)phenyl](3,3,5,5 tetramethylcyclohexylidene)methyl]phenol] | 149 to 150 °C
CC1(C)CC(=C(c2ccc(O)cc2)c2ccc(C(N)=O)cc2)CC(C)(C)C1 [Example 31, 4-[(4-hydroxyphenyl)(3,3,5,5-tetramethylcyclohexylidene)methyl]benzamide] | 209 to 210 °C

Further lines, results first:

melting point | Structure (SMILES)
233 to 234 °C | CC1(C)CC(=C(c2ccc(O)cc2)c2ccc(C#CCCC(=O)O)cc2)CC(C)(C)C1 [Example 103, 5-{4-[(4-Hydroxyphenyl)(3,3,5,5-tetramethylcyclohexylidene)methyl]phenyl}-4-pentynoic acid]
222 to 223 °C | CC1(C)CC(=C(c2ccc(O)cc2)c2ccc(-c3ccc(CO)cc3)cc2)CC(C)(C)C1 [Example 105, 4-[[4′-(Hydroxymethyl)-4-biphenylyl](3,3,5,5-tetramethylcyclohexylidene)methyl]phenol]
163 to 164 °C | CC1(C)CC(=C(c2ccc(O)cc2)c2ccc(OCC(=O)O)cc2)CC(C)(C)C1 [Example 83, ({4-[(4-Hydroxyphenyl)(3,3,5,5-tetramethylcyclohexylidene)methyl]phenyl}oxy)acetic acid]
183 to 184 °C | CC1(C)CC(=C(c2ccc(O)cc2)c2ccc(C#CCCO)cc2)CC(C)(C)C1 [Example 102, 4-[[4-(4-hydroxy-1-butyn-1-yl)phenyl](3,3,5,5-tetramethylcyclohexylidene)methyl]phenol]
160 to 161 °C | CC1(C)CC(=C(c2ccc(O)cc2)c2ccc(CCCO)cc2)CC(C)(C)C1 [Example 93, 4-[[4-(3-Hydroxypropyl)phenyl](3,3,5,5-tetramethylcyclohexylidene)methyl]phenol]
186 to 187 °C | CC(C)(O)C#Cc1ccc(C(=C2CC(C)(C)CC(C)(C)C2)c2ccc(O)cc2)cc1 [Example 101, 4-[[4-(3-hydroxy-3-methyl-1-butyn-1-yl)phenyl](3,3,5,5-tetramethylcyclohexylidene)methyl]phenol]
125 to 126 °C | OCCCC#Cc1ccc(C(=C2CCCCCC2)c2ccc(O)cc2)cc1 [Example 100, 4-{Cycloheptylidene[4-(5-hydroxy-1-pentyn-1-yl)phenyl]methyl}phenol]
171 to 172 °C | CC1(C)CC(=C(c2ccc(O)cc2)c2ccc(-c3ccccc3CO)cc2)CC(C)(C)C1 [Example 108, 4-[[2′-(Hydroxymethyl)-4-biphenylyl](3,3,5,5-tetramethylcyclohexylidene)methyl]phenol]
203 to 204 °C | CC1(C)CC(=C(c2ccc(O)cc2)c2ccc(OCCCC(=O)O)cc2)CC(C)(C)C1 [Example 84, 4-({4-[(4-hydroxyphenyl)(3,3,5,5-tetramethylcyclohexylidene)methyl]phenyl}oxy)butanoic acid]
128 to 129 °C | CC1(C)CC(=C(c2ccc(O)cc2)c2ccc(-c3ccoc3)cc2)CC(C)(C)C1 [Example 94, 4-[[4-(3-furanyl)phenyl](3,3,5,5-tetramethylcyclohexylidene)methyl]phenol]
195 to 196 °C | CC(=O)c1ccc(C(=C2CC(C)(C)CC(C)(C)C2)c2ccc(O)cc2)cc1 [Example 104, 1-{4-[(4-Hydroxyphenyl)(3,3,5,5-tetramethylcyclohexylidene)methyl]phenyl}ethanone]
197 to 198 °C | CC1(C)CC(=C(c2ccc(O)cc2)c2ccc(-c3cccc(CO)c3)cc2)CC(C)(C)C1 [Example 106, 4-[[3′-(Hydroxymethyl)-4-biphenylyl](3,3,5,5-tetramethylcyclohexylidene)methyl]phenol]
134 to 135 °C | CC1(C)CC(=C(c2ccc(O)cc2)c2ccc(CO)cc2)CC(C)(C)C1 [Example 91, 4-[[4-(Hydroxymethyl)phenyl](3,3,5,5-tetramethylcyclohexylidene)methyl]phenol]
159 to 160 °C | CC1(C)CC(=C(c2ccc(O)cc2)c2ccc(CCO)cc2)CC(C)(C)C1 [Example 92, 4-[[4-(2-Hydroxyethyl)phenyl](3,3,5,5-tetramethylcyclohexylidene)methyl]phenol]
230 to 231 °C | CC1(C)CC(=C(c2ccc(O)cc2)c2ccc(-c3ccccc3C(=O)O)cc2)CC(C)(C)C1 [Example 107, 4′-[(4-Hydroxyphenyl)(3,3,5,5-tetramethylcyclohexylidene)methyl]-2-biphenylcarboxylic acid]
